Measured values from article PMC5382548 (Scientific Reports, 2015).
Where two headings read alike, the source gives them in different places.

Columns and labels:
[1] = system: SW620 (metastatic colon); assay: MTS short-term cytotoxicity assay, SW620; assay type: cell-based; details: Homo sapiens, read-out: IC50 SW620
Procedure: (§1) Short-term anti-proliferative assays were carried out by two different assays using a panel of human cancer and non-malignant human cell lines. […] The transformed human embryonic kidney cell line HEK293T (wt KRAS) was sensitive to all tested drugs, including TMPyP4, a cationic porphyrin established as a G4 ligand, as well as the anticancer drug 5-fluorouracil (5-FU).
HCT116 human colon carcinoma cells, SW620 human colorectal adenocarcinoma and HEK293 T human embryonic kidney cells were grown in Dulbecco's modified Eagle's medium (DMEM) supplemented with 10% fetal bovine serum, and 1% antibiotic/antimycotic (Invitrogen, Grand Island, NY, USA) and maintained at 37°C in a humidified atmosphere of 5% CO2. Cells were seeded in 96 well plates at 5.000 cells/well. Twenty-four hours after cell plating, media was removed and replaced with fresh media containing test compounds and 5-FU (Sigma), a common cytotoxic agent used in colon cancer treatmen, or vehicle control (DMSO). Following 72 h of compound exposure, cell viability was evaluated using the CellTiter 96 AQueous Non-Radioactive Cell Proliferation Assay (Promega, Madison, WI, USA), using 3-(4,5-dimethylthiazol-2-yl)-5-(3-carboxymethoxyphenyl)-2-(4-sulfophenyl)-2H-tetrazolium, inner salt (MTS) as previously described. Cell viability data were expressed as mean ± SEM or mean ± SD from at least three independent experiments. IC50 and IC65 values were determined using GaphPad Prism v.5.00 (GraphPad Software). (Performed at Cell Function and Therapeutic Targeting Group, iMed.ULisboa)

[2] = system: T-loop, a 26-mer hairpin double-stranded DNA; assay: FRET melting assay, T-loop hairpin ds-DNA; assay type: binding; details: ds-DNA 0.2 μM, ligand 1 μM, K-cacodylate buffer pH 7.4, 60 mM K+
Procedure: Fluorescence resonance energy transfer (FRET) studies with DNA sequences labelled at the 5′ and 3′ ends, were conducted to evaluate the G4 DNA stabilizing properties of IQcs (at 0.1 to 5 μM ligand concentrations). The G4-forming sequence KRAS21R[11], together with T-loop, a 26-mer hairpin double-stranded DNA (ds-DNA) sequence were used in the first screening assay. Reproducible IQc dose-dependent melting curves (Sup. Inf.; Figure S3) and stabilization temperature (ΔTm) values were obtained (Figure 2 and Table S5).
Figure 2 FRET stabilization temperatures (ΔTm) of KRAS21R G4 and hairpin ds-DNA (T-loop) at 0.2 μM, in K-cacodylate buffer (pH = 7.4, 60 mM K^+), stabilized by IQc derivatives and TMPyP4 at 1 μM. ^a) SD ≤ 0.2°C. TEXT PRINTED IN THE PICTURE: TMPyP4: ΔTm / °C ^a) (T-Loop): 16.0; ΔTm / °C ^a) (KRAS21R): 25.1 | 3e: ΔTm / °C ^a) (T-Loop): 6.5; ΔTm / °C ^a) (KRAS21R): 22.0 | 3d: ΔTm / °C ^a) (T-Loop): 5.6; ΔTm / °C ^a) (KRAS21R): 19.9 | 2d: ΔTm / °C ^a) (T-Loop): 6.1; ΔTm / °C ^a) (KRAS21R): 15.1 | 2a: ΔTm / °C ^a) (T-Loop): 1.5; ΔTm / °C ^a) (KRAS21R): 4.4 […]
Oligonucleotide sequences were purchased from Eurofins MWG Synthesis GmbH, Germany or STAB VIDA Genomics Lab, Caparica, Lisbon, Portugal. The labelled oligonucleotides used in the FRET assays had attached the donor fluorophore FAM (6-carboxyfluorescein) and the acceptor fluorophore TAMRA (6-carboxytetramethylrhodamine): KRAS21R: 5′-FAM-[…]-TAMRA-3′; KRAS32R: 5′-FAM-[…]-TAMRA-3′; UTR-1: 5′-FAM-GCGGCGGCGGAGG-TAMRA-3′; UTR-2: 5′-FAM-[…]-TAMRA-3; T-Loop:5′-FAM-[…]-TAMRA-3′; F21T: 5′-FAM-[…]-TAMRA-3′. Non-labelled oligonucleotides were used in FRET competition assays and in the spectroscopic studies: ds26: - d(5′-CAATCGGATCGAATT CGATCCGATTG-3′); KRAS21R: 5′-[…]-3′; HT21: 5′-[…]-3′. Each oligonucleotide was initially diluted to a storage solution at 100 μM in nuclease-free water (not DEPC-treated), purchased from Ambion Applied Biosystems UK.
The ability of indolo[3,2-c]quinolines to stabilize DNA sequences was investigated using a Fluorescence Resonance Energy Transfer (FRET) assay as reported elsewhere.
Figure S3 (cont.)| Concentration-dependent (0.1, 0.5, 1, 2, 3, 4 and 5 µM) FRET melting profiles of G4 structures and T-loop DNA with indolo[3,2-c]quinoline derivatives 1a, 2a-g and 3d-j in K-cacodylate buffer (pH 7.4, 60 mM K+). […]
Table S5 | FRET stabilization temperatures (ΔTm) of G4s sequences and ds-DNA (0.2 µM) stabilized by […]

[3] = system: A594 (lung); assay: SRB short-term cytotoxicity assay, A594; assay type: cell-based, human; details: for IC50: Homo sapiens, 96 h
Procedure: as §1
Human cell lines, breast carcinoma (MCF7), lung carcinoma (A549), pancreatic cancer (MIA PaCa2, Panc-1), immortalised telomerase-negative human lung fibroblast (ALT) and normal human lung fibroblast (WI-38), were all purchased from American Type Cell Culture (ATCC). Cell lines were maintained in appropriate medium supplemented with 10% fetal bovine serum (Invitrogen, UK), 2 mM L-glutamine (Invitrogen, Netherlands), and other components as specified by the suppliers. All cell lines were maintained at 37°C, 5% CO2, and routinely passaged. Short-term growth inhibition was measured using the SRB assay as described previously[43] (additional details described in Supplementary Information). […]
Sulforhodamine B (SRB) short-term cytotoxicity assay
Cells were seeded at appropriate densities into the wells of 96 well plates in their corresponding medium and incubated overnight to allow the cells to attach. Subsequently cells were exposed to various concentrations of freshly made solutions of drugs and incubated for 96 h. The cells were subsequently fixed with ice-cold trichloacetic acid (TCA) (10%, w/v) for 30 min and stained with 0.4% SRB dissolved in 1% acetic acid for 15 min.
All incubations were carried out at room temperature except for TCA fixation, which was at 4 °C. The IC50 value, the concentration required to inhibit cell growth by 50%, was determined from the mean absorbance at 540 nm for each drug concentration expressed as a percentage of the control untreated well absorbance. (Performed at School of Pharmacy, University College of London). […]
(#sc-30/sc-126; Santa Cruz Biotechnology Inc., Santa Cruz, CA, USA). Finally, immunoblots were incubated with secondary anti-mouse antibody conjugated with horseradish peroxidase (BioRad) for 3 h at room temperature. The membranes were processed for protein detection using Super Signal substrate (Pierce, Rockford, IL, USA). β-Actin (#A-5441, Sigma–Aldrich) was used as a loading control. Steady-state protein levels were expressed as mean ±SEM from at least three independent experiments.

Compound | IC50 ([1]; SW-620, MTS assay, 72 h) | FRET stabilization temperature ΔTm (T-loop) [2] | Selectivity index SI = IC50(WI-38)/IC50(A594) [3] | IC50 [3] | IC50 ([1]; SW-620, 72 h)
CCN(CC)CCCNc1ccc2[nH]c3c(c[n+](C)c4ccc(NCCCN(CC)CC)cc34)c2c1.[Cl-] [3d] | 4740 nM | 5.6 °C | – | – | –
CCN(CC)CCCNc1ccc2c(c1)[nH]c1c2c[n+](C)c2ccc(NCCCN(CC)CC)cc12.[Cl-] [3e] | 1790 nM | 6.5 °C | 7.0 | 1450 nM | –
C[n+]1ccc(-c2c3nc(c(-c4cc[n+](C)cc4)c4ccc([nH]4)c(-c4cc[n+](C)cc4)c4ccc([nH]4)c(-c4cc[n+](C)cc4)c4nc2C=C4)C=C3)cc1 [TMPyP4, reference compound] | – | 16.0 °C | – | – | > 20000 nM
Cn1cc2c3ccccc3nc-2c2cc(Br)ccc21 [2a, 2-bromo-5-methyl-indolo[3,2-c]quinoline] | 200 nM | 1.5 °C | 9.3 | 670 nM | –
CCN(CC)CCCNc1ccc2c(c1)c1[nH]c3ccccc3c1c[n+]2C [2d] | 590 nM | 6.1 °C | – | 400 nM | –
